Experiment [1] has as its target T1, mouse NMDA receptor subunits z1 and e1 expressed in oocytes (Mus musculus, UniProt P35438).
T1 construct: expressed in transfected cells
Description: Electrophysiological NMDA specific activity assay, two-electrode voltage clamp in oocytes. The experiment is classed as cell-based. The procedure:
Electrophysiological recordings are made with two-electrode voltage-clamp techniques, and standard oocyte expression system preparations (see Leonard and Kelso, 1990, Neuron 4:53-60; Kelso et al., 1992, J. Physiology 449:705-718). Oocytes are isolated and injected with mRNA for mouse NMDA receptor subunits: 70 nl of z1 (-- 1) RNA is co-injected with an equal volume of e1 (-- 1) RNA. After incubation for two days, recordings are made while clamping membrane potential at -80 mV. The standard recording solution contains 95 mM NaCl, 2 mM KCl, 3.8 mM BaCl2, and 5 mM HEPES. Mg^2+ is omitted because it blocks NMDA currents at some potentials; Ca^2+ is omitted because it can trigger the oocyte's endogenous Ca^2+ -dependent chloride current. Responses are evoked by the continuous perfusion of 3-5 ml of NMDA containing solutions. The recording chamber has a volume of about […].
In general terms: In two-electrode clamp one electrode senses voltage and the other passes current.

Experiment [2] has as its target T2, NMDA receptor complex, glycine co-agonist site (Rattus norvegicus, UniProt P35439).
T2 construct: Crude synaptic membranes used in the assay were prepared using rat hippocampal tissue; from tissue; host or cells: rat hippocampus, crude synaptic membranes
The experiment is classed as biochemical. The conditions noted are these: rat hippocampus membranes, in the presence of 7-chlorokynurenic acid, ± S.E.M. Here is the method: Polypeptides or amino acid compositions of the instant invention were tested for the ability to mimic the glycine co-agonist effect on the NMDA receptor using a previously validated [^3 H]MK-801 binding assay. This functional assay takes advantage of the fact that increased [^3 H]MK-801 binding by NMDA receptors can only occur upon receptor-binding channel opening. This is because the MK-801 binding site is located inside the ionophore of the NMDA receptor complex, and is thus only accessible upon the opening of the receptor complex channel. Thus increased binding of [^3 H]MK-801 is directly correlated with increased channel opening, in this assay, triggered by the binding of the polypeptides or amino acid compositions of the instant invention to the glycine co-agonist binding site.
To further refine the assay, a selective antagonist of the glycine binding site of the NMDA receptor-channel complex is added to the assay. The normal action of 7-chlorokynurenic acid is to selectively bind to the glycine site, and inhibit NMDA receptor channel opening, and thus inhibit the binding of [^3 H]MK-801 to the NMDA receptor complex.
Crude synaptic membranes used in the assay were prepared using rat hippocampal tissue (male Sprague-Dawly rats) and extensively washed using the procedures described previously (Haring et al., 1991, J. Neurochem. 57:323-331). Briefly, tissue which has been stored at -80-- C is homogenized in ice cold 5 mM Tris (pH 7.4) using a Brinkman Polytron® and then pelleted by centrifugation at 48,000 g for 20 minutes. The resulting supernatant is discarded, and the membranes washed three times in cold buffer. Pellets are then resuspended in 5 mM EDTA, 15 mM Tris (pH 7.4), and incubated for one hour at 37-- C. The membrane suspensions are then pelleted by centrifugation at 48,000g for 20 min and stored at -80-- C until use in the assay.
Frozen pellets are thawed at room temperature and washed three times by resuspension in 5 mM Tris (pH 7.4) and centrifugation. Final pellets are suspended at concentrations of 2 to 3 mg/ml in 5 mM Tris buffer (pH 7.4). Binding reactions are initiated by the addition of 200-- g of freshly prepared membranes to reaction mixtures (about 1 ml final volume) containing 1 nM [^3 H]MK-801 at 25-- C in the presence of a range of peptide concentrations and 60-- M 7-chlorokynurenic acid. Non-specific binding is determined using 10-- M unlabelled MK-801. Binding reactions are terminated by filtration through a Brandel 24-well cell harvester onto Whatman GF/B glass filters that have been presoaked in 0.25% polyethyleneimine for 30 minutes.

In experiment [3] the target is T2, NMDA receptor complex, glycine co-agonist site. The experiment is classed as biochemical. The conditions noted are these: in the presence of 10 μM L-glutamate, ± S.E.M.

Like-named read-outs stand apart in the source and are kept apart here. Positions of bridges follow the written chain, without caps; N, C: chain ends. Residues, ends and D or L forms follow the SMILES beside them. No end group written: not given here.

Regarding `CN[C@H](CC(=O)O)C(=O)O` [NMDA, N-methyl-D-aspartate], in experiment [1] (NMDA alone, same cell), the “NMDA current (FIG. 3B)” value is “about 7 nA”.

For the compound `C[C@@H](O)[C@@H]1NC(=O)[C@@H]2CCCN2C(=O)[C@@H]2CCCN2C(=O)[C@H]([C@@H](C)O)NC(=O)[C@H](CO)NC(=O)[C@H](Cc2ccc(O)cc2)NC(=O)[C@H](Cc2c[nH]cn2)NC(=O)[C@H](CCC(N)=O)NC(=O)[C@H](CCC(N)=O)NC(=O)[C@@H](N)CSSC[C@@H](C(=O)O)NC1=O` [NT-10] (H-CQQHYSTPPTC-OH; disulfide 1-11), the “[3H]MK-801 binding, percentage of control binding” value (“[3H]MK-801 binding, percentage” below) came out at 116 ± 12% in experiment [2] (10^-5 M peptide); 128 ± 4% in experiment [2] (10^-6 M peptide); 114 ± 3% in experiment [2] (10^-7 M peptide); 90 ± 8% in experiment [2] (10^-8 M peptide); 100 ± 2% in experiment [2] (10^-9 M peptide).

As for `C[C@@H](O)[C@H](N)C(=O)N1CCC[C@H]1C(=O)N1CCC[C@H]1C(=O)N[C@H](C(=O)O)[C@@H](C)O` [NT-13, Thr-Pro-Pro-Thr] (H-TPPT-OH), the “[3H]MK-801 binding, percentage” value in experiment [2] (10^-5 M peptide) came to 117 ± 7%; in experiment [2] (10^-6 M peptide) it was 129 ± 10%; in experiment [2] (10^-7 M peptide) it was 110 ± 10%; in experiment [2] (10^-8 M peptide) it was 103 ± 8%; in experiment [2] (10^-9 M peptide) it was 97 ± 8%.

On to `C[C@@H](O)[C@H](N)C(=O)N1CCC[C@H]1C(=O)N1CCC[C@H]1C(=O)O` [NT-14, Thr-Pro-Pro] (H-Thr-Pro-Pro-OH), for which the “[3H]MK-801 binding, percentage” value in experiment [2] (10^-5 M peptide) is reported as 95 ± 4%; in experiment [2] (10^-6 M peptide) it was 98 ± 8%; in experiment [2] (10^-7 M peptide) it was 96 ± 5%; in experiment [2] (10^-8 M peptide), 101 ± 1%; in experiment [2] (10^-9 M peptide), 89 ± 6%.

With `C[C@@H](O)[C@H](NC(=O)[C@@H]1CCCN1C(=O)[C@@H]1CCCN1)C(=O)O` [NT-15, Pro-Pro-Thr] (H-Pro-Pro-Thr-OH), the “[3H]MK-801 binding, percentage” value in experiment [2] (10^-5 M peptide) is listed as 93 ± 1%; in experiment [2] (10^-6 M peptide), 108 ± 12%; in experiment [2] (10^-7 M peptide), 100 ± 7%; in experiment [2] (10^-8 M peptide) it was 103 ± 2%; in experiment [2] (10^-9 M peptide), 99 ± 21%.

On to `O=C(O)[C@@H]1CCCN1C(=O)[C@@H]1CCCN1` [NT-16, Pro-Pro] (H-Pro-Pro-OH), for which the “[3H]MK-801 binding, percentage” value was found to be 117 ± 12% in experiment [2] (10^-5 M peptide); 103 ± 3% in experiment [2] (10^-6 M peptide); 97 ± 6% in experiment [2] (10^-7 M peptide); 89 ± 8% in experiment [2] (10^-8 M peptide); 83 ± 9% in experiment [2] (10^-9 M peptide).

`C[C@@H](O)[C@H](N)C(=O)N1CCC[C@H]1C(=O)N[C@H](C(=O)O)[C@@H](C)O` [NT-17, Thr-Pro-Thr] (H-Thr-Pro-Thr-OH): the “[3H]MK-801 binding, percentage” value in experiment [2] (10^-5 M peptide) was 119 ± 21%; in experiment [2] (10^-6 M peptide), 117 ± 14%; in experiment [2] (10^-7 M peptide), 128 ± 9%; in experiment [2] (10^-8 M peptide) it was 125 ± 17%; in experiment [2] (10^-9 M peptide), 122 ± 23%.

`NCC(=O)O` [glycine]: the “NMDA current (FIG. 3B)” value in experiment [1] (100-- M NMDA with 10-- M glycine, -80 mV) was “about 284 nA”.

Take EDLAVYYSQQHYSTPPT [NT-5]: the “[3H]MK-801 binding, percentage” value in experiment [2] (10^-5 M peptide) came out at 112 ± 4%; in experiment [2] (10^-6 M peptide), 106 ± 2%; in experiment [2] (10^-7 M peptide) it was 114 ± 2%; in experiment [2] (10^-8 M peptide) it was 100 ± 9%; in experiment [2] (10^-9 M peptide), 109 ± 8%.

As for FTISSVQAELDLAVYYSQQHYSTPPT [NT-7], the “[3H]MK-801 binding, percentage” value in experiment [2] (10^-5 M peptide) is listed as 100 ± 3%; in experiment [2] (10^-6 M peptide) it was 104 ± 0%; in experiment [2] (10^-7 M peptide) it was 97 ± 1%; in experiment [2] (10^-8 M peptide), 103 ± 4%; in experiment [2] (10^-9 M peptide), 96 ± 4%.

For KASQDVSTTVA [NT-1], the entries for the “[3H]MK-801 binding, percentage” value in experiment [3] (10^-5 M peptide), in experiment [3] (10^-6 M peptide) and in experiment [3] (10^-7 M peptide) were 73 ± 6%, 100 ± 2% and 97 ± 2%, respectively.

Turning to QQHYS [NT-12, Gln-Gln-His-Tyr-Ser], the “[3H]MK-801 binding, percentage” value is on record as 106 ± 2% in experiment [2] (10^-5 M peptide); 106 ± 9% in experiment [2] (10^-6 M peptide); 95 ± 7% in experiment [2] (10^-7 M peptide); 104 ± 10% in experiment [2] (10^-8 M peptide); 95 ± 21% in experiment [2] (10^-9 M peptide).

As for QQHYSTPPT [NT-3], the “[3H]MK-801 binding, percentage” value in experiment [2] (10^-5 M peptide) is 90 ± 1%; in experiment [2] (10^-6 M peptide) it was 111 ± 11%; in experiment [2] (10^-7 M peptide), 121 ± 4%; in experiment [2] (10^-8 M peptide) it was 123 ± 0%; in experiment [2] (10^-9 M peptide), 112 ± 20%.

Turning to QQHYSTPPTFGGG [NT-8], the “[3H]MK-801 binding, percentage” value in experiment [2] (10^-5 M peptide) is 115 ± 6%; in experiment [2] (10^-6 M peptide), 107 ± 6%; in experiment [2] (10^-7 M peptide), 108 ± 4%; in experiment [2] (10^-8 M peptide), 110 ± 5%; in experiment [2] (10^-9 M peptide) it was 105 ± 7%.

For QQHYSTPPTFGGGTKLE [NT-9], the “[3H]MK-801 binding, percentage” value in experiment [2] (10^-5 M peptide) came out at 120 ± 3%; in experiment [2] (10^-6 M peptide), 112 ± 10%; in experiment [2] (10^-7 M peptide) it was 125 ± 5%; in experiment [2] (10^-8 M peptide), 126 ± 7%; in experiment [2] (10^-9 M peptide), 104 ± 12%.

For “SASYRYT [NT-2, Ser-Ala-Ser-Tyr-Arg-Tyr-Thr]”, the “[3H]MK-801 binding, percentage” value was found to be 77 ± 12% in experiment [3] (10^-5 M peptide), 106 ± 4% in experiment [3] (10^-6 M peptide), 109 ± 15% in experiment [3] (10^-7 M peptide) and 80 ± 9% in experiment [3] (10^-8 M peptide).

For SQQHYSTPPTS [NT-11], the “[3H]MK-801 binding, percentage” value in experiment [2] (10^-5 M peptide) turned out to be 127 ± 21%; in experiment [2] (10^-6 M peptide) it was 120 ± 11%; in experiment [2] (10^-7 M peptide), 118 ± 4%; in experiment [2] (10^-8 M peptide), 111 ± 4%; in experiment [2] (10^-9 M peptide), 96 ± 23%.

As to SVQAELDLAVYYSQQHYSTPPT [NT-6], the “[3H]MK-801 binding, percentage” value in experiment [2] (10^-5 M peptide) was found to be 91 ± 7%; in experiment [2] (10^-6 M peptide), 96 ± 1%; in experiment [2] (10^-7 M peptide), 101 ± 15%; in experiment [2] (10^-8 M peptide), 101 ± 9%; in experiment [2] (10^-9 M peptide), 95 ± 6%.

On to VYYSQQHYSTPPT [NT-4], for which the “[3H]MK-801 binding, percentage” value was 109 ± 10% in experiment [2] (10^-5 M peptide); 110 ± 1% in experiment [2] (10^-6 M peptide); 116 ± 2% in experiment [2] (10^-7 M peptide); 106 ± 6% in experiment [2] (10^-8 M peptide); 106 ± 2% in experiment [2] (10^-9 M peptide).

Values taken from patent publication US6107271A, “Neuroactive peptides” (NYXIS Neuro Therapies, Inc., priority 1998, dated 2000).
